In patent US9018224B2, “Substituted cyclopropyl compounds useful as GPR119 agonists” (Merck Sharp & Dohme Corp., priority 2011, dated 2015):
pEC50: −log10 of the molar value.

biological target: T1, human GPR119 (Homo sapiens, UniProt Q8TDV5); assay: Measurement of GPR119 signaling by cAMP (LANCE cAMP kit or HTRF) in HEK293 cells transfected with human GPR119; format: cell-based; conditions: agonist cAMP response in HEK293 cells stably transfected with human GPR119; patent does not say which of the two cAMP formats (LANCE or HTRF)
T1 sequence (Q8TDV5 1-308 limits assumed): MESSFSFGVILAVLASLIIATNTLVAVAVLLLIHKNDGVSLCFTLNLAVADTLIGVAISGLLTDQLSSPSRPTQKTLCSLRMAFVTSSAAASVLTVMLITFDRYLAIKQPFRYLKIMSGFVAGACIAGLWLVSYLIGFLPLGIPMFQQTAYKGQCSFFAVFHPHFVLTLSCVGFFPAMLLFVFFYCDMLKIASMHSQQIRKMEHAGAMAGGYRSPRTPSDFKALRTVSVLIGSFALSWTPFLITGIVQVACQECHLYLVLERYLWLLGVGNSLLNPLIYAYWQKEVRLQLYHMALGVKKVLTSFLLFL
Method: Measurement of GPR119 Signaling Using LANCE 384-Well cAMP Kit
The adenylate cyclase assay was constructed following the LANCE™ cAMP Kit (Perkin Elmer, AD0264) instructions. […] The reaction was stopped by incubating with the supplied detection buffer containing the europium chelate of the Eu-SA/Biotin-cAMP tracer for 3 hours. The assay was performed in duplicate in a 384 well plate for duplicate plates. […] Basal activity was determined using a DMSO control and maximum response was defined as cAMP stimulation produced by an internal agonist control. Standard cAMP concentrations were assayed concurrently for conversion of fluorescence signal to cAMP level. The data was analyzed using 4-parameter curve fit in Microsoft Excel
Measurement of GPR119 Signaling Using a Cyclic AMP (cAMP) Homogenous Time Resolved Fluorescence (HTRF) Assay
Chinese hamster ovary (CHO) cell lines stably transfected with the permissive guanine nucleotide binding protein alpha 15 (Gα15) and murine GPR119 were maintained in DMEM media containing FBS, penicillin-streptomycin, puromycin, and G418 (geneticin). […] Agonist activation of the GPR119 receptor was measured in receptor transfected cells described above, treated with compounds of this invention, using a commercial homogenous time resolved fluorescence (HTRF) kit for measurement of cAMP (CisBio, Bedford, Mass.). The assay was performed in 96-well half-volume plates (murine) or 384-well plates (human) following the manufacturers instructions. Briefly, suspended cells were incubated with a dose titration of test compound at room temperature for 60 min, lysed, and incubated with HTRF reagents for an additional 60 min. The plate was read using an Envision multilabel reader (Perkin Elmer) adjusted to read time resolved fluorescence and the cAMP concentrations were extrapolated from a cAMP calibration curve. […] The concentration of test compound required to stimulate a half-maximal response (EC50), and efficacy as compared to an internal agonist control, was determined from a sigmoidal 4-parameter curve fit of the resulting plot of normalized activity versus compound concentration.

Going from `CCOc1cnc(N2CCC([C@H]3C[C@H]3CCOc3cc(F)c(CC(=O)N4CC(C)(O)C4)c(F)c3)CC2)nc1` [Example 233] to `CCOc1cnc(N2CCC([C@H]3C[C@H]3CCOc3cc(F)c(CC(=O)N4CC(F)(F)C4)c(F)c3)CC2)nc1` [Example 231], the pEC50 rises from 9.18 to 9.89 (0.71 log units). The second is the more potent here.

Compared with `O=C(Cc1ccc(OCC[C@@H]2C[C@@H]2C2CCN(c3ncc(Cl)cn3)CC2)cc1F)N1CCc2oncc2C1` [Example 183], `O=C(Cc1ccc(OCC[C@@H]2C[C@@H]2C2CCN(c3ncc(Cl)cn3)CC2)cc1F)N1CCc2sccc2C1` [Example 185] is 0.37 log units lower in pEC50: 9.03 for the first, 8.66 for the second. The first is the more potent here.

`CC(F)(F)CNC(=O)Cc1ccc(OCC[C@@H]2C[C@@H]2C2CCN(c3ncc(Cl)cn3)CC2)cc1F` [Example 105] and `O=C(Cc1ccc(OCC[C@@H]2C[C@@H]2C2CCN(c3ncc(Cl)cn3)CC2)cc1F)NCC(F)(F)F` [Example 79] are within 0.2 log units of each other in pEC50: 8.82 for the first, 8.80 for the second.

Going from `CCc1cnc(N2CCC([C@H]3C[C@H]3CCOc3ccc(CC(=O)N4CCC4)c(C)c3)CC2)nc1` [Example 16] to `CCc1cnc(N2CCC([C@H]3C[C@H]3CCOc3ccc(CC(=O)N4CCC4)c(F)c3)CC2)nc1` [Example 207, 1-(azetidin-1-yl)-2-[4-(2-{(1S,2R)-2-[1-(5-ethylpyrimidin-2-yl)piperidin-4-yl]cyclopropyl}ethoxy)-2-fluorophenyl]ethanone], the pEC50 rises from 8.96 to 9.40 (0.44 log units). The second is the more potent here.

`CC1(C)CN(C(=O)Cc2ccc(OCC[C@@H]3C[C@@H]3C3CCN(c4ncc(Cl)cn4)CC3)cc2F)Cc2nnc(C(F)(F)F)n21` [Example 179] and `O=C(Cc1ccc(OCC[C@@H]2C[C@@H]2C2CCN(c3ncc(Cl)cn3)CC2)cc1F)N1CCn2c(nnc2C(F)(F)F)C1` [Example 133] are within 0.2 log units of each other in pEC50: 8.96 for the first, 9.04 for the second.

`O=C(Cc1ccc(OCC[C@@H]2C[C@@H]2C2CCN(c3ncc(Cl)cn3)CC2)cc1F)NC1CCCC1` [Example 83] and `CN(C(=O)Cc1ccc(OCC[C@@H]2C[C@@H]2C2CCN(c3ncc(Cl)cn3)CC2)cc1F)C1CCCCC1` [Example 164] are within 0.2 log units of each other in pEC50: 8.89 for the first, 8.80 for the second.

Going from `COCc1cnc(N2CCC([C@H]3C[C@H]3CCOc3ccc(CC(=O)N(C)C)c(F)c3)CC2)nc1` [Example 47] to `COCc1cnc(N2CCC([C@H]3C[C@H]3CCOc3ccc(CC(=O)N(C)C4COC4)c(F)c3)CC2)nc1` [Example 54], the pEC50 falls from 8.89 to 8.60 (0.29 log units).

First: Cc1nc2c(o1)CN(C(=O)Cc1ccc(OCC[C@@H]3C[C@@H]3C3CCN(c4ncc(Cl)cn4)CC3)cc1F)CC2 [Example 141]
Second: O=C(Cc1ccc(OCC[C@@H]2C[C@@H]2C2CCN(c3ncc(Cl)cn3)CC2)cc1F)N1CCc2cncnc2C1 [Example 129]
The pEC50 of the first is 0.62 log units lower: 8.92 for the first, 9.54 for the second.

`COCc1cnc(N2CCC([C@H]3C[C@H]3CCOc3ccc(CC(=O)N4CC(C)(O)C4)c(Cl)c3)CC2)nc1` [Example 31] and `COCc1cnc(N2CCC([C@H]3C[C@H]3CCOc3ccc(CC(=O)N4CCC4)c(C#N)c3)CC2)nc1` [Example 25] are within 0.2 log units of each other in pEC50: 8.82 for the first, 8.85 for the second.

First: O=C(Cc1ccc(OCC[C@@H]2C[C@@H]2C2CCN(c3ncc(Cl)cn3)CC2)c(F)c1)N1CCC1 [Example 250]
Second: O=C(Cc1ccc(OCC[C@@H]2C[C@@H]2C2CCN(c3ncc(Cl)cn3)CC2)cc1)N1CCC1 [Example 1, 1-(azetidin-1-yl)-2-[4-(2-{(1S,2R)-2-[1-(5-chloropyrimidin-2-yl)piperidin-4-yl]cyclopropyl}ethoxy)phenyl]ethanone]
The pEC50 of the first is 0.44 log units lower: 8.66 for the first, 9.10 for the second.

Compared with `CCc1nnc2n1CCN(C(=O)Cc1ccc(OCC[C@@H]3C[C@@H]3C3CCN(c4ncc(Cl)cn4)CC3)cc1F)C2` [Example 151], `O=C(Cc1ccc(OCC[C@@H]2C[C@@H]2C2CCN(c3ncc(Cl)cn3)CC2)cc1F)N1CCn2ccnc2C1` [Example 149] is 0.63 log units higher in pEC50: 8.33 for the first, 8.96 for the second.

Compared with `O=C(Cc1ccc(OCC[C@@H]2C[C@@H]2C2CCN(c3ncc(Cl)cn3)CC2)cc1F)N1CCc2sc(C(F)(F)F)nc2C1` [Example 186], `O=C(Cc1ccc(OCC[C@@H]2C[C@@H]2C2CCN(c3ncc(Cl)cn3)CC2)cc1F)N1CCn2cc(C(F)(F)F)nc2C1` [Example 132] is 0.49 log units higher in pEC50: 8.77 for the first, 9.26 for the second.

Going from `COc1cnc(N2CCC([C@H]3C[C@H]3CCOc3cc(F)c(CC(=O)N(C)C)c(F)c3)CC2)nc1` [Example 213] to `CCOc1cnc(N2CCC([C@H]3C[C@H]3CCOc3cc(F)c(CC(=O)N4CC(OC)C4)c(F)c3)CC2)nc1` [Example 236], the pEC50 rises from 9.64 to 9.92 (0.28 log units). The second is the more potent here.

`O=C(Cc1ccc(OCC[C@@H]2C[C@@H]2C2CCN(c3ncc(Cl)cn3)CC2)cc1F)N1CC(F)C1` [Example 68] and `O=C(Cc1ccc(OCC[C@@H]2C[C@@H]2C2CCN(c3ncc(Cl)cn3)CC2)cc1F)N1CC(O)C1` [Example 65] are within 0.2 log units of each other in pEC50: 9.48 for the first, 9.66 for the second.

Compared with `N#Cc1cc(OCC[C@@H]2C[C@@H]2C2CCN(c3ncc(Cl)cn3)CC2)ccc1CC(=O)N1CCC1` [Example 23, 2-[2-(azetidin-1-yl)-2-oxoethyl]-5-(2-{(1S,2R)-2-[1-(5-chloropyrimidin-2-yl)piperidin-4-yl]cyclopropyl}ethoxy)benzonitrile], `O=C(Cc1ccc(OCC[C@@H]2C[C@@H]2C2CCN(c3ncc(Cl)cn3)CC2)cc1F)N1CCC(O)CC1` [Example 163] is 0.72 log units lower in pEC50: 9.49 for the first, 8.77 for the second. The first is the more potent here.

First: COCc1cnc(N2CCC([C@H]3C[C@H]3CCOc3ccc(CC(=O)N4CCCC4(F)F)c(F)c3)CC2)nc1 [Example 52]
Second: COCc1cnc(N2CCC([C@H]3C[C@H]3CCOc3ccc(CC(=O)N4CCC[C@@H]4C)c(F)c3)CC2)nc1 [Example 49]
The pEC50 of the first is 0.64 log units higher: 9.44 for the first, 8.80 for the second.

Going from `COCc1cnc(N2CCC([C@H]3C[C@H]3CCOc3ccc(CC(=O)N4CC5CC5C4)c(F)c3)CC2)nc1` (stereo partly shown) [Example 51] to `COCc1cnc(N2CCC([C@H]3C[C@H]3CCOc3ccc(CC(=O)N4CC(F)C4)c(F)c3)CC2)nc1` [Example 43], the pEC50 rises from 9.01 to 9.27 (0.26 log units). The second is the more potent here.

`COc1cnc(N2CCC([C@H]3C[C@H]3CCOc3ccc(CC(=O)N4CC(OC)C4)c(F)c3)CC2)nc1` [Example 34] and `CCOCc1cnc(N2CCC([C@H]3C[C@H]3CCOc3ccc(CC(=O)N4CC(OC)C4)c(F)c3)CC2)nc1` [Example 203] are within 0.2 log units of each other in pEC50: 9.01 for the first, 8.92 for the second.

`CN(Cc1n[nH]c(=O)[nH]1)C(=O)Cc1ccc(OCC[C@@H]2C[C@@H]2C2CCN(c3ncc(Cl)cn3)CC2)cc1F` [Example 158] and `CN(CC1CCCCC1)C(=O)Cc1ccc(OCC[C@@H]2C[C@@H]2C2CCN(c3ncc(Cl)cn3)CC2)cc1F` [Example 167] are within 0.2 log units of each other in pEC50: 8.18 for the first, 8.12 for the second.

Going from `O=C(Cc1ccc(OCC[C@@H]2C[C@@H]2C2CCN(c3ncc(Cl)cn3)CC2)cc1F)N1CCn2nc(C3CC3)nc2C1` [Example 148] to `CC1(O)CCN(C(=O)Cc2ccc(OCC[C@@H]3C[C@@H]3C3CCN(c4ncc(Cl)cn4)CC3)cc2F)C1` (stereo partly shown) [Example 74], the pEC50 falls from 8.92 to 8.38 (0.54 log units).

`COCc1cnc(N2CCC([C@H]3C[C@H]3CCOc3cc(F)c(CC(=O)N4CCC4)c(F)c3)CC2)nc1` [Example 219, 1-(azetidin-1yl)-2-(2,6-difluoro-4-{2[(1S,2R)-2-{1-[5-(methoxylmethyl)pyrimidin-2yl]piperidin-4-yl}cyclopropyl]ethoxyl}phenyl)ethanone] and `COCc1cnc(N2CCC([C@H]3C[C@H]3CCOc3cc(F)c(CC(=O)N4CC(F)C4)c(F)c3)CC2)nc1` [Example 220] are within 0.2 log units of each other in pEC50: 9.74 for the first, 9.85 for the second.

Going from `COc1cnc(N2CCC([C@H]3C[C@H]3CCOc3ccc(CC(=O)N4CC(F)(F)C4)c(F)c3)CC2)nc1` [Example 40] to `O=C(Cc1ccc(OCC[C@@H]2C[C@@H]2C2CCN(c3ncc(Cl)cn3)CC2)cc1F)NC1CC1(F)F` (stereo partly shown) [Example 88], the pEC50 falls from 9.38 to 8.77 (0.61 log units). The first is the more potent here.

Compared with `Fc1cc(OCC[C@@H]2C[C@@H]2C2CCN(c3ncc(Cl)cn3)CC2)ccc1Cc1nnco1` [Example 245, 5-chloro-2-{4-[(1R,2S)-2-(2-{3-fluoro-4-[(1,3,4-oxadizol-2-yl)methyl]phenoxy}ethyl)cyclopropyl]piperidin-1-yl}pyrimidine], `O=C(Cc1ccc(OCC[C@@H]2C[C@@H]2C2CCN(c3ncc(Cl)cn3)CC2)cc1F)N1CCC[C@@H]1C(F)(F)F` [Example 76] is 0.23 log units higher in pEC50: 8.39 for the first, 8.62 for the second. The second is the more potent here.
